In publication PMC5366289 (Biochemistry, 2016):
“Also recorded” adds a separate entry of the source.

What was measured:
[1] = Far-UV circular dichroism, helical content of T-domain peptides; type: physicochemical
[2] = molecular target: TolC (Escherichia coli, UniProt P02930); details: BLM; concentration not given; listed as synthetic peptide 100–120
[3] = test system: E. coli cells; details: ref K. S. Jakes, unpublished data; listed as T100–120; cited from earlier work
[4] = test system: E. coli, TolC Gly43 mutants; details: cited from earlier work
[5] = cytoplasmic membrane; cited from earlier work

TolC, sequence (P02930 23-493): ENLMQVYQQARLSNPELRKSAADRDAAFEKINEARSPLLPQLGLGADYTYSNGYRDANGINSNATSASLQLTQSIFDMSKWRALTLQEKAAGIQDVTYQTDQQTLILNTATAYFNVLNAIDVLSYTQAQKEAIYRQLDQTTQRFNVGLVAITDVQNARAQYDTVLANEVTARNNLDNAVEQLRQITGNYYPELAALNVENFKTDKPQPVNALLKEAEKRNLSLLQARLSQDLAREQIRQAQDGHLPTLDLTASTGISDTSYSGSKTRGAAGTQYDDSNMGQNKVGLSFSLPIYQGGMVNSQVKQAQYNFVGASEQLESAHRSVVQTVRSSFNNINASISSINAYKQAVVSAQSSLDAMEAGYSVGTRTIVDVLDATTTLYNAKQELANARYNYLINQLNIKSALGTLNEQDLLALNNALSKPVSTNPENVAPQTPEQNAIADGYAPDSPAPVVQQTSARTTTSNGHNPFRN

## H-EALRHNASRTPSATELAHANN-OH [100–120 ^e]
[1]; from helical content by far-UV CD, DichroWeb, tags assumed unordered
  no. of residues, helix: 0 residues
[1]; total number in peptide excluding tags minus residues in helices
  no. of residues, unordered: 21 residues
[2]
  occlusion of TolC channels, in words: did not occlude TolC channels
[3]
  protection of E. coli cells against colicin E1 cytotoxicity: inability of the synthetic peptide T100–120, which lacks ordered secondary structure, to occlude TolC channels, and to protect E. coli cells; also recorded: does not protect E. coli cells

B1: colicin E1: 522-residue channel-forming colicin (protein, UniProt P02978 1-522, looked up)
Colicin-E1: METAVAYYKDGVPYDDKGQVIITLLNGTPDGSGSGGGGGKGGSKSESSAAIHATAKWSTAQLKKTQAEQAARAKAAAEAQAKAKANRDALTQRLKDIVNEALRHNASRTPSATELAHANNAAMQAEDERLRLAKAEEKARKEAEAAEKAFQEAEQRRKEIEREKAETERQLKLAEAEEKRLAALSEEAKAVEIAQKKLSAAQSEVVKMDGEIKTLNSRLSSSIHARDAEMKTLAGKRNELAQASAKYKELDELVKKLSPRANDPLQNRPFFEATRRRVGAGKIREEKQKQVTASETRINRINADITQIQKAISQVSNNRNAGIARVHEAEENLKKAQNNLLNSQIKDAVDATVSFYQTLTEKYGEKYSKMAQELADKSKGKKIGNVNEALAAFEKYKDVLNKKFSKADRDAIFNALASVKYDDWAKHLDQFAKYLKITGHVSFGYDVVSDILKIKDTGDWKPLFLTLEKKAADAGVSYVVALLFSLLAGTTLGIWGIAIVTGILCSYIDKNKLNTINEVLGI
[4]; larger side chains at TolC residue 43
  killing efficiency of colicin E1 on TolC Gly43 mutants: reduced the killing efficiency
[4]; mutation to residue with larger side chains
  decrease in colicin E1 cytotoxicity by TolC G43 mutation: ≤ 1000 -fold
[5]
  channel conductance: approximately 10^6 ions/s per channel
